Experimental data taken from patent US20240228506A1, “RIPK1 INHIBITORS AND METHODS OF USE” (Merck Sharp & Dohme LLC, priority 2021, published 2024).

Target: T1, GST-RIPK1 (recombinant GST-RIPK1 kinase domain (residues 1-327)) (Homo sapiens, UniProt Q13546)
T1 construct: recombinant GST-RIPK1 kinase domain (residues 1-327) enzyme; made in house; host or cells: baculovirus-transfected Sf21 insect cells
T1 sequence (Q13546 1-327): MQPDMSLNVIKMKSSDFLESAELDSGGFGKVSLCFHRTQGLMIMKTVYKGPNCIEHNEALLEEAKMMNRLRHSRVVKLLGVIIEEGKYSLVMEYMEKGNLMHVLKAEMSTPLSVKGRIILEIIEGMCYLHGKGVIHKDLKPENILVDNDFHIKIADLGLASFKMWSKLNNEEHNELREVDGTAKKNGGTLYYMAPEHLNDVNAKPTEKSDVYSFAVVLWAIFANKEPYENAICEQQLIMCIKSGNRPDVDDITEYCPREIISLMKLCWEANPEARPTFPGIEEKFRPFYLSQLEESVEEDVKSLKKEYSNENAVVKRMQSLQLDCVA
Test: RIPK1-ADP-Glo enzymatic assay
Type: biochemical
Conditions: 25 nM GST-RIPK1, 300 μM ATP, 3 μM dephosphorylated-MBP; 30 minutes pre-incubation, 150 minutes reaction; ten-point titration
Outline: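 Ten-point 1:3 titrations from 100000 nM, 1% DMSO, were preincubated 30 min with 25 nM GST-RIPK1 (1-327) before starting with 300 μM ATP plus 3 μM dephosphorylated MBP; 150 min reaction. ADP-Glo luminescence measured ATP-to-ADP conversion; EC50 by four-parameter sigmoidal regression.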

SMILES	IC50 [nM]
CC(C)(C(=O)N1C[C@@H]2C[C@H]1c1cncc(C#CCn3nnc4ccccc43)c1O2)C(F)F [Compound 2-40, 1-((2S,5S)-9-(3-(1H-benzo[d][1,2,3]triazol-1-yl)prop-1-yn-1-yl)-2,3-dihydro-2,5-methanopyrido[3,4-f][1,4]oxazepin-4(5H)-yl)-3,3-difluoro-2,2-dimethylpropan-1-one]	140
CC(C)(C(=O)N1C[C@@H]2C[C@H]1c1cncc(C#Cc3ccc(F)cc3)c1O2)C(F)F [Compound 2-41, 3,3-difluoro-1-((2S,5S)-9-((4-fluorophenyl)ethynyl)-2,3-dihydro-2,5-methanopyrido[3,4-f][1,4]oxazepin-4(5H)-yl)-2,2-dimethylpropan-1-one]	56
CC(C)(C(=O)N1C[C@@H]2C[C@H]1c1cncc(C#Cc3cccc(F)c3)c1O2)C(F)F [Compound 2-42, 3,3-difluoro-1-((2S,5S)-9-((3-fluorophenyl)ethynyl)-2,3-dihydro-2,5-methanopyrido[3,4-f][1,4]oxazepin-4(5H)-yl)-2,2-dimethylpropan-1-one]	42
CC(C)(C(=O)N1C[C@@H]2C[C@H]1c1cncc(C#Cc3ccc(F)cc3F)c1O2)C(F)F [Compound 2-43, 1-((2S,5S)-9-((2,4-difluorophenyl)ethynyl)-2,3-dihydro-2,5-methanopyrido[3,4-f][1,4]oxazepin-4(5H)-yl)-3,3-difluoro-2,2-dimethylpropan-1-one]	48
CC(C)(C(=O)N1C[C@@H]2C[C@H]1c1cncc(C#Cc3ccccc3F)c1O2)C(F)F [Compound 2-44, 3,3-difluoro-1-((2S,5S)-9-((2-fluorophenyl)ethynyl)-2,3-dihydro-2,5-methanopyrido[3,4-f][1,4]oxazepin-4(5H)-yl)-2,2-dimethylpropan-1-one]	34
CC(C)(C(=O)N1C[C@@H]2C[C@H]1c1cncc(C#Cc3cncnc3)c1O2)C(F)F [Compound 2-45, 3,3-difluoro-2,2-dimethyl-1-((2S,5S)-9-(pyrimidin-5-ylethynyl)-2,3-dihydro-2,5-methanopyrido[3,4-f][1,4]oxazepin-4(5H)-yl)propan-1-one]	32
CC(C)(C(=O)N1C[C@@H]2C[C@H]1c1cncc(C#CCc3ccccc3)c1O2)C(F)F [Compound 2-46, 3,3-difluoro-2,2-dimethyl-1-((2S,5S)-9-(3-phenylprop-1-yn-1-yl)-2,3-dihydro-2,5-methanopyrido[3,4-f][1,4]oxazepin-4(5H)-yl)propan-1-one]	98
CC(C)(C(=O)N1C[C@@H]2C[C@H]1c1cncc(C#Cc3ccccc3)c1O2)C(F)F [Compound 2-47, 3,3-Difluoro-2,2-dimethyl-1-((2S,5S)-9-(phenylethynyl)-2,3-dihydro-2,5-methanopyrido[3,4-f][1,4]oxazepin-4(5H)-yl)propan-1-one]	66
CC(C)(C(=O)N1C[C@@H]2C[C@H]1c1cncc(C#Cc3cccnc3)c1O2)C(F)F [Compound 2-48, 3,3-difluoro-2,2-dimethyl-1-((2S,5S)-9-(pyridin-3-ylethynyl)-2,3-dihydro-2,5-methanopyrido[3,4-f][1,4]oxazepin-4(5H)-yl)propan-1-one]	36
CC(C)(C(=O)N1C[C@@H]2C[C@H]1c1cncc(C#Cc3cnccn3)c1O2)C(F)F [Compound 2-49, 3,3-difluoro-2,2-dimethyl-1-((2S,5S)-9-(pyrazin-2-ylethynyl)-2,3-dihydro-2,5-methanopyrido[3,4-f][1,4]oxazepin-4(5H)-yl)propan-1-one]	83
O=C(N1C[C@@H]2C[C@H]1c1cncc(C#Cc3cnc4ccoc4c3)c1O2)C12CCC(C(F)(F)F)(CC1)C2 [Compound 2-53, ((2S,5S)-9-(furo[3,2-b]pyridin-6-ylethynyl)-2,3-dihydro-2,5-methanopyrido[3,4-f][1,4]oxazepin-4(5H)-yl)(4-(trifluoromethyl)bicyclo [2.2.1]heptan-1-yl)methanone]	17
O=C(N1C[C@@H]2C[C@H]1c1cncc(C#Cc3ccc(F)cc3F)c1O2)C12CCC(C(F)(F)F)(CC1)C2 [Compound 2-59, ((2S,5S)-9-((2,4-difluorophenyl)ethynyl)-2,3-dihydro-2,5-methanopyrido[3,4-f][1,4]oxazepin-4(5H)-yl)(4-(trifluoromethyl)bicyclo[2.2.1]heptan-1-yl)methanone]	22

More lines, now with the values ahead:

IC50 [nM]	SMILES
15	O=C(N1C[C@@H]2C[C@H]1c1cncc(C#Cc3cncnc3)c1O2)C12CCC(C(F)(F)F)(CC1)C2 [Compound 2-50, ((2S,5S)-9-(Pyrimidin-5-ylethynyl)-2,3-dihydro-2,5-methanopyrido[3,4-f][1,4]oxazepin-4(5H)-yl)(4-(trifluoromethyl)bicyclo[2.2.1]heptan-1-yl)methanone]
17	O=C(N1C[C@@H]2C[C@H]1c1cncc(C#Cc3cccnn3)c1O2)C12CCC(C(F)(F)F)(CC1)C2 [Compound 2-51, ((2S,5S)-9-(pyridazin-3-ylethynyl)-2,3-dihydro-2,5-methanopyrido[3,4-f][1,4]oxazepin-4(5H)-yl)(4-(trifluoromethyl)bicyclo [2.2.1]heptan-1-yl)methanone]
30	O=C(N1C[C@@H]2C[C@H]1c1cncc(C#Cc3ccncc3)c1O2)C12CCC(C(F)(F)F)(CC1)C2 [Compound 2-52, ((2S,5S)-9-(pyridin-4-ylethynyl)-2,3-dihydro-2,5-methanopyrido[3,4-f][1,4]oxazepin-4(5H)-yl)(4-(trifluoromethyl)bicyclo [2.2.1]heptan-1-yl)methanone]
18	O=C(N1C[C@@H]2C[C@H]1c1cncc(C#Cc3cscn3)c1O2)C12CCC(C(F)(F)F)(CC1)C2 [Compound 2-54, ((2S,5S)-9-(thiazol-4-ylethynyl)-2,3-dihydro-2,5-methanopyrido[3,4-f][1,4]oxazepin-4(5H)-yl)(4-(trifluoromethyl)bicyclo [2.2.1]heptan-1-yl)methanone]
26	Cn1cncc1C#Cc1cncc2c1O[C@H]1C[C@@H]2N(C(=O)C23CCC(C(F)(F)F)(CC2)C3)C1 [Compound 2-55, ((2S,5S)-9-((1-methyl-1H-imidazol-5-yl)ethynyl)-2,3-dihydro-2,5-methanopyrido[3,4-f][1,4]oxazepin-4(5H)-yl)(4-(trifluoromethyl)bicyclo [2.2.1]heptan-1-yl)methanone]
23	O=C(N1C[C@@H]2C[C@H]1c1cncc(C#CCn3ccnc3)c1O2)C12CCC(C(F)(F)F)(CC1)C2 [Compound 2-56, ((2S,5S)-9-(3-(1H-imidazol-1-yl)prop-1-yn-1-yl)-2,3-dihydro-2,5-methanopyrido[3,4-f][1,4]oxazepin-4(5H)-yl)(4-(trifluoromethyl)bicyclo [2.2.1]heptan-1-yl)methanone]
78	O=C(N1C[C@@H]2C[C@H]1c1cncc(C#CCO)c1O2)C12CCC(C(F)(F)F)(CC1)C2 [Compound 2-57, ((2S,5S)-9-(3-hydroxyprop-1-yn-1-yl)-2,3-dihydro-2,5-methanopyrido[3,4-f][1,4]oxazepin-4(5H)-yl)(4-(trifluoromethyl)bicyclo[2.2.1]heptan-1-yl)methanone]
12	O=C(N1C[C@@H]2C[C@H]1c1cncc(C#Cc3cccnc3)c1O2)C12CCC(C(F)(F)F)(CC1)C2 [Compound 2-58, ((2S,5S)-9-(pyridin-3-ylethynyl)-2,3-dihydro-2,5-methanopyrido[3,4-f][1,4]oxazepin-4(5H)-yl)(4-(trifluoromethyl)bicyclo [2.2.1]heptan-1-yl)methanone]
73	O=C(N1C[C@@H]2C[C@H]1c1cncc(C#Cc3ccccn3)c1O2)C12CCC(C(F)(F)F)(CC1)C2 [Compound 2-60, ((2S,5S)-9-(pyridin-2-ylethynyl)-2,3-dihydro-2,5-methanopyrido[3,4-f][1,4]oxazepin-4(5H)-yl)(4-(trifluoromethyl)bicyclo [2.2.1]heptan-1-yl)methanone]
22	O=C(N1C[C@@H]2C[C@H]1c1cncc(C#Cc3cnccn3)c1O2)C12CCC(C(F)(F)F)(CC1)C2 [Compound 2-61, ((2S,5S)-9-(pyrazin-2-ylethynyl)-2,3-dihydro-2,5-methanopyrido[3,4-f][1,4]oxazepin-4(5H)-yl)(4-(trifluoromethyl)bicyclo [2.2.1]heptan-1-yl)methanone]
17	Cc1ccc(C#Cc2cncc3c2O[C@H]2C[C@@H]3N(C(=O)C34CCC(C(F)(F)F)(CC3)C4)C2)cn1 [Compound 2-62]
14	Cc1ccncc1C#Cc1cncc2c1O[C@H]1C[C@@H]2N(C(=O)C23CCC(C(F)(F)F)(CC2)C3)C1 [Compound 2-63, ((2S,5S)-9-((4-methylpyridin-3-yl)ethynyl)-2,3-dihydro-2,5-methanopyrido[3,4-f][1,4]oxazepin-4(5H)-yl)(4-(trifluoromethyl)bicyclo [2.2.1]heptan-1-yl)methanone]
16	O=C(N1C[C@@H]2C[C@H]1c1cncc(C#Cc3ccccc3)c1O2)C12CCC(C(F)(F)F)(CC1)C2 [Compound 2-64, ((2S,5S)-9-(phenylethynyl)-2,3-dihydro-2,5-methanopyrido[3,4-f][1,4]oxazepin-4(5H)-yl)(4-(trifluoromethyl)bicyclo [2.2.1]heptan-1-yl)methanone]
